According to ChEMBL document CHEMBL5303573, “Mapping human microbiome drug metabolism by gut bacteria and their genes” (Nature, 2019):

Experiments:
[1] = The drug is tested on Anaerotruncus colihominis strain: DSM17241 for biotransformation. The drug concentrations were measured before and after a 12-h incubation by liquid-chromatography-coupled mass spectrometry (LC–MS); conditions: 2 µM
[2] = The drug is tested on Bacteroides pectinophilus strain: ATCC43243 for biotransformation. The drug concentrations were measured before and after a 12-h incubation by liquid-chromatography-coupled mass spectrometry (LC–MS); conditions: 2 µM
[3] = The drug is tested on Enterococcus faecalis strain: V583 for biotransformation. The drug concentrations were measured before and after a 12-h incubation by liquid-chromatography-coupled mass spectrometry (LC–MS); conditions: 2 µM
[4] = bifidobacterium adolescentis, 12 h, 2 µM
Description: The drug is tested on Bifidobacterium adolescentis strain: ATCC 15703 for biotransformation. The drug concentrations were measured before and after a 12-h incubation by liquid-chromatography-coupled mass spectrometry (LC–MS)

[5] = The drug is tested on Bacteroides ovatus strain: ATCC8483 for biotransformation. The drug concentrations were measured before and after a 12-h incubation by liquid-chromatography-coupled mass spectrometry (LC–MS); conditions: 2 µM
[6] = The drug is tested on Ruminococcus torques strain: ATCC27756 for biotransformation. The drug concentrations were measured before and after a 12-h incubation by liquid-chromatography-coupled mass spectrometry (LC–MS); type: ADME; design: dose 2 uM, timepoint 0 vs 12 hours; conditions: 2 µM
[7] = The drug is tested on Eggerthella lenta strain: ATCC25559 for biotransformation. The drug concentrations were measured before and after a 12-h incubation by liquid-chromatography-coupled mass spectrometry (LC–MS); conditions: 2 µM
[8] = The drug is tested on Bacteroides dorei strain: DSM17855 for biotransformation. The drug concentrations were measured before and after a 12-h incubation by liquid-chromatography-coupled mass spectrometry (LC–MS); conditions: phocaeicola dorei, 2 µM
[9] = The drug is tested on Clostridium asparagiforme strain: DSM15981 for biotransformation. The drug concentrations were measured before and after a 12-h incubation by liquid-chromatography-coupled mass spectrometry (LC–MS); type: ADME; design: dose 2 uM, timepoint 0 vs 12 hours; conditions: enterocloster asparagiformis, 2 µM
[10] = The drug is tested on Clostridium sp. strain: fecal isolate for biotransformation. The drug concentrations were measured before and after a 12-h incubation by liquid-chromatography-coupled mass spectrometry (LC–MS); conditions: 2 µM
[11] = The drug is tested on Dorea formicigenerans strain: ATCC27755 for biotransformation. The drug concentrations were measured before and after a 12-h incubation by liquid-chromatography-coupled mass spectrometry (LC–MS); conditions: 2 µM
[12] = The drug is tested on Clostridium scindens strain: ATCC35704 for biotransformation. The drug concentrations were measured before and after a 12-h incubation by liquid-chromatography-coupled mass spectrometry (LC–MS); conditions: 2 µM
[13] = The drug is tested on Ruminococcus gnavus strain: ATCC29149 for biotransformation. The drug concentrations were measured before and after a 12-h incubation by liquid-chromatography-coupled mass spectrometry (LC–MS); conditions: mediterraneibacter gnavus, 2 µM
[14] = bacteroides eggerthii, 12 h, 2 µM
Description: The drug is tested on Bacteroides eggerthii strain: DSM20697 for biotransformation. The drug concentrations were measured before and after a 12-h incubation by liquid-chromatography-coupled mass spectrometry (LC–MS)

[15] = The drug is tested on Bacteroides uniformis strain: ATCC8492 for biotransformation. The drug concentrations were measured before and after a 12-h incubation by liquid-chromatography-coupled mass spectrometry (LC–MS); conditions: 2 µM
[16] = The drug is tested on Enterobacter cancerogenus strain: ATCC35316 for biotransformation. The drug concentrations were measured before and after a 12-h incubation by liquid-chromatography-coupled mass spectrometry (LC–MS); conditions: 2 µM
[17] = The drug is tested on Subdoligranulum variabile strain: DSM15176 for biotransformation. The drug concentrations were measured before and after a 12-h incubation by liquid-chromatography-coupled mass spectrometry (LC–MS); conditions: 2 µM
[18] = The drug is tested on Providencia rettgeri strain: DSM1131 for biotransformation. The drug concentrations were measured before and after a 12-h incubation by liquid-chromatography-coupled mass spectrometry (LC–MS); type: ADME; design: dose 2 uM, timepoint 0 vs 12 hours; conditions: 2 µM
[19] = The drug is tested on Bifidobacterium ruminantium strain: fecal isolate for biotransformation. The drug concentrations were measured before and after a 12-h incubation by liquid-chromatography-coupled mass spectrometry (LC–MS); conditions: 2 µM
[20] = The drug is tested on Escherichia coli strain: BW25113 for biotransformation. The drug concentrations were measured before and after a 12-h incubation by liquid-chromatography-coupled mass spectrometry (LC–MS); conditions: 2 µM

Row | SMILES | Bacterial Biotransformation [1] | Bacterial Biotransformation [2] | Bacterial Biotransformation [3] | Bacterial Biotransformation [4] | Bacterial Biotransformation [5] | Bacterial Biotransformation [6] | Bacterial Biotransformation [7] | Bacterial Biotransformation [8] | Bacterial Biotransformation [9] | Bacterial Biotransformation [10] | Bacterial Biotransformation [11] | Bacterial Biotransformation [12] | Bacterial Biotransformation [13] | Bacterial Biotransformation [14] | Bacterial Biotransformation [15] | Bacterial Biotransformation [16] | Bacterial Biotransformation [17] | Bacterial Biotransformation [18] | Bacterial Biotransformation [19] | Bacterial Biotransformation [20]
1 | COc1ccc2[nH]c([S+]([O-])Cc3ncc(C)c(OC)c3C)nc2c1 (stereo not given) [OMEPRAZOLE] | Compound metabolized | Compound metabolized | Compound metabolized | Compound metabolized | Compound metabolized | Compound metabolized | Compound metabolized | Compound metabolized | Compound metabolized | Compound metabolized | Compound metabolized | Compound metabolized | Compound metabolized | Compound metabolized | Compound metabolized | Compound metabolized | Compound metabolized | Compound metabolized | Compound metabolized | Compound metabolized
2 | CC(Oc1c(Cl)cccc1Cl)C1=NCCN1 (stereo not given) [LOFEXIDINE] | Compound metabolized | Compound metabolized | Compound NOT metabolized | Compound metabolized | Compound NOT metabolized | Compound metabolized | Compound metabolized | Compound metabolized | Compound metabolized | Compound metabolized | Compound metabolized | Compound metabolized | Compound metabolized | Compound metabolized | Compound metabolized | Compound metabolized | Compound metabolized | Compound metabolized | Compound metabolized | Compound metabolized
3 | CC(=O)Oc1ccc(C(c2ccc(OC(C)=O)cc2)c2ccccn2)cc1 [BISACODYL] | Compound metabolized | Compound metabolized | Compound metabolized | Compound metabolized | Compound metabolized | Compound metabolized | Compound metabolized | Compound metabolized | Compound metabolized | Compound metabolized | Compound metabolized | Compound metabolized | Compound metabolized | Compound metabolized | Compound metabolized | Compound metabolized | Compound metabolized | Compound metabolized | Compound metabolized | Compound metabolized
4 | C#C[C@]1(O)CC[C@H]2[C@@H]3CCC4=Cc5oncc5C[C@]4(C)[C@H]3CC[C@@]21C [DANAZOL] | Compound metabolized | Compound metabolized | Compound metabolized | Compound metabolized | Compound metabolized | Compound metabolized | Compound metabolized | Compound metabolized | Compound metabolized | Compound metabolized | Compound metabolized | Compound metabolized | Compound metabolized | Compound metabolized | Compound metabolized | Compound metabolized | Compound metabolized | Compound metabolized | Compound metabolized | Compound metabolized
5 | COc1ccnc(C[S+]([O-])c2nc3ccc(OC(F)F)cc3[nH]2)c1OC (stereo not given) [PANTOPRAZOLE] | Compound metabolized | Compound metabolized | Compound metabolized | Compound metabolized | Compound metabolized | Compound metabolized | Compound metabolized | Compound metabolized | Compound metabolized | Compound metabolized | Compound metabolized | Compound metabolized | Compound metabolized | Compound metabolized | Compound metabolized | Compound metabolized | Compound metabolized | Compound metabolized | Compound metabolized | Compound metabolized
6 | CCN(CC)CCOCCOC(=O)C1(c2ccccc2)CCCC1.O=C(O)CC(O)(CC(=O)O)C(=O)O [CARBETAPENTANE CITRATE] | Compound metabolized | Compound metabolized | Compound metabolized | Compound metabolized | Compound metabolized | Compound metabolized | Compound metabolized | Compound metabolized | Compound metabolized | Compound metabolized | Compound metabolized | Compound metabolized | Compound metabolized | Compound metabolized | Compound metabolized | Compound metabolized | Compound metabolized | Compound metabolized | Compound metabolized | Compound metabolized
